# Data taken from US7745572B2, “Peptides effective in the treatment of tumors and other conditions requiring the removal or destruction of cells” (Qualcomm Incorporated, priority 2001, dated 2010).
# Tested on: rat prostate
# Assay: Intraprostatic infusion in rats, prostate volume and histology at 72 hours
# Format: in vivo, Sprague-Dawley rats
# Details: 1 mg/mL in PBS pH 7.4 (1.0 mg/kg)
# Method: Male Sprague-Dawley rats (300 gram weight range) were anesthetized with ether and given NTP[122] peptide #1 by intraprostatic infusion after open surgical visualization of the prostate. The injections consisted of 300 μl of NTP[122] peptide #1, 1 mg/mL in PBS pH 7.4. (1.0 mg/kg) (n=8), control injections of PBS alone (n=6), and controls with no injection (n=2). Rats were painlessly sacrificed after 72 hours. Prostate glands were dissected, fixed in 10%, buffered formalin for 24 hours, embedded in paraffin, sectioned, and stained with H & E. For each animal the entire prostate gland was embedded and sectioned. All stained sections were examined histologically and measured. For each prostate at least 4 histological sections were examined, and for each histological section two cross-sectional diameters (D) at 90° from each other were measured (total of ≧8 measurements per prostate). […]
# Male Sprague-Dawley rats (300 gram weight range) were anesthetized with ether and given NTP[112] peptide #1 by intraprostatic infusion after open surgical visualization of the prostate. […] All stained sections were examined histologically and measured. For each prostate at least 4 histological sections were examined, and for each histological section two cross-sectional diameters (D) at 90° from each other were measured (total of ≧8 measurements per prostate). […]
row,Sequence,prostate histology (H & E)
1,IDQQVLSRIKLEIKRCL (listed as Homo sapiens) [NTP[122] peptide #1],"extensive loss of glandular epithelium, flattening and atrophy"
2,MAQSRLTATSASRVQ (listed as Homo sapiens) [NTP[112] peptide #1],significant cell loss and atrophy
